The record followed here is patent US11771709B2, “ALK protein degradation agent and anti-tumor application thereof” (ShanghaiTech University, priority 2017, dated 2023).

What all share (assay type): cell-based
Test [1] concerns the target T1, ALK protein in SR cells (Homo sapiens, UniProt Q9UM73).
T1 construct: NPM (nucleophosmin, NPM1, P06748) fusion partner; host or cells: SR (ALCL) cells; the other entry of the earlier key: NPM1 (P06748, Nucleophosmin)
Briefly: Block of ALK degradation by proteosome inhibitors MG132 and MLN4924 in SR cells. An excerpt:
To further validate the degradation effect act through proteosome mediated pathway, we also treated cells with two different proteosome inhibitors MG132 and MLN4924 to block protein degradation (FIG. 16).

Test [2] deals with PC9Brc1 cells. Briefly: Colony formation assay in PC9Brc1 cells. Conditions: PC9 Brc1 cells. How it is done: (§1) Cell were digested to become single cell suspension. Cells were seeded in the intensity of 250 cells/well in 12 well plate. Treated cells at the concentration of 100, 250, 500 nM. Fixed cells 2-3 weeks after and stained cells with crystyl violate.
(§2) ALK PROTAD compound SIAIS1210117 and its negative control epimer SIAIS219050 were used.

Test [3] addresses T2, Ba/F3 (EML4-ALK/C1156Y) (Homo sapiens, UniProt Q9UM73, C1156Y, cells depend on it).
T2 construct: Q9HC35 (Echinoderm microtubule-associated protein-like 4)
Description: Growth inhibition IC50 in Ba/F3 cells expressing EML4-ALK C1156Y.
Description: (§3) Cells were seeded at specific density in 96 well plates one day before treatment. […] Viable cells were measured via CCK8 reagent and IC50s were calculated via Prism Graphad. Experiments were repeated at least three times.

The test system of test [4] is PC9 (EGFR, exon 19 del) cells. Description: Growth inhibition IC50 in EGFR mutant lung adenocarcinoma PC9 cells. Conditions: Homo sapiens, PC-9; PC9 cells, CTB, n ≥ 3; read-out: Half Inhibitory Concentration (IC50) Mean.
Description: (§4) SR (NPM-ALK) and NCI-H2228 (EML4-ALK, V3) cells were purchased from ATCC. […] All Cells were cultured in RPMI1640 medium with 10% FBS and Penicillin-Streptomycin in 37° C. incubator with 5% CO2.
as §3
In test [5] the target is T3, ALK protein in SR (NPM-ALK) cells (Homo sapiens, UniProt Q9UM73).
T3 construct: NPM (nucleophosmin, NPM1, P06748) fusion partner; host or cells: SR (ALCL) cells; the other entry of the earlier key: NPM1 (P06748, Nucleophosmin)
Description: Western blot of ALK protein level (degradation, DC50), ALK phosphorylation and downstream signaling in SR cells. On the technique in general: A western blot detects proteins with antibodies after separation by electrophoresis.

In test [6] the test system is MOLM13 cells (FLT3-ITD). Briefly: Growth inhibition IC50 in FLT3-ITD AML cell line MOLM13. Conditions: Homo sapiens, MOLM-13; MOLM13 cells, n = 2, reagent CTG; read-out: Half Inhibitory Concentration (IC50) Mean.
Description: as §3
Test [7] addresses T4, Ba/F3 (EML4-ALK/WT) (Homo sapiens, UniProt Q9UM73).
T4 construct: Q9HC35 (Echinoderm microtubule-associated protein-like 4)
Description: Growth inhibition IC50 in Ba/F3 cells expressing EML4-ALK wild type.
Description: as §3

The target in test [8] is T5, Ba/F3 (EML4-ALK/L1196M) (Homo sapiens, UniProt Q9UM73, L1196M, cells depend on it).
T5 construct: Q9HC35 (Echinoderm microtubule-associated protein-like 4)
Briefly: Growth inhibition IC50 in Ba/F3 cells expressing EML4-ALK L1196M.
Description: as §3

The test system of test [9] is U118MG cells (FIG-ROS1 gene fusion). Description: Growth inhibition IC50 in ROS1 mutant glioblastoma cell line U118MG (72 hours). Conditions: Homo sapiens, U-118-MG, U118MG cells, 72 hours.
Test [10] relates to NCI-H2228 (EML4-ALK, V3) cells. Description: Growth inhibition IC50 in lung adenocarcinoma H2228 cells (WST). Conditions: Homo sapiens, WST (Table 3). The source says:
Experiments were repeated at least three times.
Besides above, we also tested the dosage-dependent effects on the growth inhibition in H2228 cells. […] (Table 3).

In test [11] the test system is H2228 cells (EML4-ALK). Description: Colony formation assay in H2228 cells. Conditions: about 2 weeks. As for the experimental part:
as §1
In order to see the effect of ALK PROTAD compounds on the colony formation ability of cancer cells, EML4-ALK mutant lung cancer cells H2228 were firstly seeded in 12 well plate at the density of 200 cells per well. Cells were treated with different ALK PROTAD compounds at different concentration for about 2 weeks.

In test [12] the test system is PC9Brc1 (EGFR, exon 19 del+T790M) cells. Briefly: Growth inhibition IC50 in EGFR mutant lung cancer PC9Brc1 cells. Conditions: CTB, n ≥ 3, read-out: Half Inhibitory Concentration (IC50) Mean.
Description: as §4, §3
Test [13] relates to PC9 cells. Description: Colony formation assay in PC9 cells. How it is done:
as §1, §2

Test [14] relates to SR (NPM-ALK) cells. Description: Growth inhibition IC50 in ALCL SR cells (CCK8/WST, 72 hours). Conditions: 72 h, SR cells, WST; Brigatinib-based PROTAD molecules (Table 3).
Description: as §4, §3
The test system of test [15] is SW48 cell line (EGFR G719S). Briefly: Growth inhibition IC50 in EGFR G719S colorectal cancer cell line SW48. Conditions: Homo sapiens, CTG, n = 2, read-out: Half Inhibitory Concentration (IC50) Mean.
Description: as §3

Where two headings read alike, the source gives them in different places.

Turning to `COc1cc(N2CCC(NC(=O)CCCCCCCCCC(=O)N[C@H](C(=O)N3C[C@H](O)C[C@H]3C(=O)NCc3ccc(-c4scnc4C)cc3)C(C)(C)C)CC2)ccc1Nc1ncc(Cl)c(Nc2ccccc2P(C)(C)=O)n1` [SIAIS1210117, N1-(1-(4-((5-chloro-4-((2-(dimethylphosphoryl)phenyl)amino)pyrimidin-2-yl)amino)-3-methoxyphenyl)piperidin-4-yl)-N11-((S)-1-((2S,4R)-4-hydroxy-2-((4-(4-methylthiazol-5-yl)benzyl)carbamoyl)pyrrolidin-1-yl)-3,3-dimethyl-1-oxobutan-2-yl)undecanediamide], in test [1], the “reduction of ALK protein level and its block by MG132 and MLN4924” value is listed as “able to be blocked”. The colony formation entry is given as “able to inhibit” in [2], “dramatically inhibited” in test [11] and “able to inhibit” in test [13]. Moreover, the GI50 (as a rule, the concentration giving 50% growth inhibition) in test [3] worked out at 120 nM; in test [7], 123 nM; in [8], 170 nM. The IC50 in test [4] is 106 nM; in test [6], 345 nM; in test [9] (n = 2, reagent CTG, read-out: Half Inhibitory Concentration (IC50) Mean), 920 nM; in test [9] (read-out: IC50) it was ~920 nM; in test [10] it was 30.3 nM; in test [12], 460 nM. Also, the IC50 turned out to be 1.7 ± 1 nM in test [14] and 1360 nM in test [15]. Moreover, in [5] (ALK protein degradation in SR cells), the DC50 – broadly, the midpoint of the concentration-degradation curve – lay in the range of 0.5 to 10 nM. Also, the “ALK protein degradation within a time course” value in [5] (SR cells, 100 nM, 4 hours (SIAIS1210117), up to 24 hours (epimer)) was “significant ALK protein degradation”.
